This is an account of results in US10456379B2, “Imidazole-based antimicrobial agents” (priority 2014, dated 2019).

Data set [1] concerns vancomycin-resistant Enterococcus faecium (ATCC51559). Put plainly: microbe, parasite or virus in culture. The format is cell-based.
Data set [2] relates to moenomycin-resistant Staphylococcus aureus (from MRSA COL). Briefly: Broth microdilution MIC assay, moenomycin-resistant MRSA. The data set is classed as cell-based. The settings on record: 24 h, read-out: Antibacterial activity, MRSA strains with additional resistance, M (moenomycin), MIC class. A general note: Dilution methods test growth across graded concentrations, often in twofold steps.

The test system of data set [3] is platensimycin-resistant Staphylococcus aureus (from MRSA COL). Put plainly: Broth microdilution MIC assay, platensimycin-resistant MRSA. The settings on record: 24 h, read-out: Antibacterial activity, MRSA strains with additional resistance, P (platensimycin), MIC class. The data set is classed as cell-based.
For data set [4], the system named is Mycobacterium smegmatis (mc(2)155). Put plainly: Broth microdilution MIC assay, Mycobacterium smegmatis.
Data set [5] has as its system Streptococcus pneumoniae (Chester, ATCC49619). Put plainly: Broth microdilution MIC assay, Streptococcus pneumoniae. The format is cell-based. The note with it: for Antibacterial activity Streptococcus pneumoniae: MIC class score, MIC100, broth microdilution; for MIC: Streptococcus pneumoniae, ATCC49619, read-out: Antibacterial activity, SP (Streptococcus pneumoniae), MIC class.

In data set [6] the test system is Bacillus subtilis (Marburg strain, ATCC6051). Briefly: microbe, parasite or virus in culture. The data set is classed as cell-based. The settings on record: ATCC6051, read-out: Antibacterial activity, BS (Bacillus substilis), MIC class.
The test system of data set [7] is Enterococcus faecalis (ATCC29212). Put plainly: Broth microdilution MIC assay, Enterococcus faecalis. The data set is classed as cell-based. The settings on record: read-out: Antibacterial activity, EFs (Enterococcus faecalis), MIC class.
For data set [8], the system named is Enterococcus faecium (AGR15, ATCCBAA-2127). Briefly: Broth microdilution MIC assay, Enterococcus faecium. The format is cell-based. The note with it: ATCCBAA2127, read-out: Antibacterial activity, EFm (Enterococcus faecium), MIC class.
For data set [9], the system named is vancomycin-resistant Enterococcus faecalis (ATCC51575). Put plainly: microbe, parasite or virus in culture. The format is cell-based. The settings on record: ATCC51575; vancomycin-resistant Enterococcus faecalis; read-out: Antibacterial activity, VREFs (vancomycin-resistant EFs), MIC class.
Data set [10] deals with linezolid-resistant Staphylococcus aureus (from MRSA COL). Briefly: Broth microdilution MIC assay, linezolid-resistant MRSA. The format is cell-based. The settings on record: 24 h, read-out: Antibacterial activity, MRSA strains with additional resistance, L (linezolid), MIC class.
In data set [11] the test system is daptomycin-resistant Staphylococcus aureus (from MRSA COL). Put plainly: Broth microdilution MIC assay, daptomycin-resistant MRSA. The format is cell-based. The note with it: 24 h, read-out: Antibacterial activity, MRSA strains with additional resistance, D (daptomycin), MIC class.
Data set [12] concerns Staphylococcus aureus MSSA (Newman). Put plainly: Broth microdilution MIC assay, Staphylococcus aureus MSSA (Newman). The data set is classed as cell-based. The note with it: MIC class score, MIC100, broth microdilution, Newman strain.
In data set [13] the test system is Staphylococcus aureus MRSA (COL). Briefly: Broth microdilution MIC assay, Staphylococcus aureus MRSA (COL). The format is cell-based.
Data set [14] concerns MRSA (COL) resistant to triclosan. Briefly: Broth microdilution MIC assay, triclosan-resistant MRSA. The settings on record: Staphylococcus aureus, read-out: Antibacterial activity, MRSA strains with additional resistance, T (triclosan), MIC class.
Data set [15] relates to vancomycin-resistant Staphylococcus aureus (from MRSA COL). Put plainly: Broth microdilution MIC assay, vancomycin-resistant MRSA. The data set is classed as cell-based. The note with it: 24 h, read-out: Antibacterial activity, MRSA strains with additional resistance, V (vancomycin), MIC class.
The test system of data set [16] is Staphylococcus epidermidis (PCI 1200, ATCC12228). Put plainly: Broth microdilution MIC assay, Staphylococcus epidermidis. The data set is classed as cell-based. The note with it: read-out: Antibacterial activity, SE (Staphylococcus epidermidis), MIC class.
[17] abbreviates: ATCC51559, vancomycin-resistant Enterococcus faecium, read-out: Antibacterial activity, VREFm (vancomycin-resistant EFm), MIC class.

Values after ≈ are worked out from the molar mass of the structure shown. Where two headings read alike, the source gives them in different places.

On to `Cc1nc(-c2ccc(-c3ccc(Cl)cc3Cl)o2)[nH]c1-c1ccccc1` [compound 1], for which the values for the MIC in data set [1] (setting [17]), in data set [2] and in data set [3] were 20 to 50 µg/mL (≈ 54.2 to 135 µM), 3 to 10 µg/mL (≈ 8.12 to 27.1 µM) and 3 to 10 µg/mL (≈ 8.12 to 27.1 µM), respectively. Besides, in [4], the “Antibacterial activity, MS (Mycobacterium smegmatis), MIC class” value (shortened to “Antibacterial activity, MS”) is on record as 2 (MIC100 of 11-20 μg/ml).

`Cc1[nH]c(-c2ccc(-c3ccc(Cl)cc3)s2)nc1-c1ccccc1` [compound 6]: the “Antibacterial activity Streptococcus pneumoniae” value in [5] is reported as 3 (MIC100 of 2-5 μg/ml). The MIC in [6] is 11 to 20 µg/mL (≈ 31.4 to 57 µM). Besides, the “Antibacterial activity, MS” value in [4] is reported as 2 (MIC100 of 11-20 μg/ml).

Turning to `Cc1[nH]c(-c2ccc(-c3ccccc3OC(F)(F)F)o2)nc1-c1ccccc1` [compound 18], in [5], the “Antibacterial activity Streptococcus pneumoniae” value is listed as 3 (MIC100 of 2-5 μg/ml). Further, the MIC in [5] fell in the range of 2 to 5 µg/mL (≈ 5.2 to 13 µM); in data set [7], 20 to 50 µg/mL (≈ 52 to 130 µM); in data set [8] it was 20 to 50 µg/mL (≈ 52 to 130 µM); in data set [1] (setting [17]), 20 to 50 µg/mL (≈ 52 to 130 µM); in data set [9], 20 to 50 µg/mL (≈ 52 to 130 µM).

Consider `Cc1nc(-c2ccc(-c3ccccc3OC(F)(F)F)o2)[nH]c1-c1ccccc1Cl` [compound 19], for which the MIC in data set [5] was under 1 µg/mL; in data set [1] (Enterococcus faecium, ATCC51559, read-out: Antibacterial activity, VREFm (vancomycin-resistant EFm), MIC class), 20 to 50 µg/mL (≈ 47.8 to 119 µM); in data set [10], 3 to 10 µg/mL (≈ 7.16 to 23.9 µM); in [11], 3 to 10 µg/mL (≈ 7.16 to 23.9 µM). In addition, in [4], the “Antibacterial activity, MS” value is on record as 2 (MIC100 of 11-20 μg/ml).

`Cc1nc(-c2ccc(-c3ccccc3OC(F)(F)F)o2)[nH]c1-c1cccc(Cl)c1` [compound 21]: the “Antibacterial activity Staphylococcus aureus (MSSA)” value in data set [12] was 3 (MIC100 of 3-10 μg/ml). Besides, the “Antibacterial activity Staphylococcus aureus (MRSA)” value in [13] (MIC class score, MIC100, broth microdilution, COL strain) is 3 (MIC100 of 3-10 μg/ml). Moreover, the MIC in data set [13] (Staphylococcus aureus, MRSA, read-out: Antibacterial activity, MRSA (Staphylococcus aureus MRSA), MIC class) lay within 3 to 10 µg/mL (≈ 7.16 to 23.9 µM); in [7], 20 to 50 µg/mL (≈ 47.8 to 119 µM); in data set [1] (setting [17]) it was 20 to 50 µg/mL (≈ 47.8 to 119 µM); in data set [9], 20 to 50 µg/mL (≈ 47.8 to 119 µM); in data set [3] it was 3 to 10 µg/mL (≈ 7.16 to 23.9 µM); in data set [14], 3 to 10 µg/mL (≈ 7.16 to 23.9 µM).

Regarding `Cc1[nH]c(-c2ccc(-c3ccccc3OC(F)(F)F)o2)nc1-c1ccc(Cl)cc1` [compound 24], the MIC was in the range of 20 to 50 µg/mL (≈ 47.8 to 119 µM) in [7]; 20 to 50 µg/mL (≈ 47.8 to 119 µM) in data set [9]; 1 to 3 µg/mL (≈ 2.39 to 7.16 µM) in data set [15]; 1 to 3 µg/mL (≈ 2.39 to 7.16 µM) in [11]; 11 to 20 µg/mL (≈ 26.3 to 47.8 µM) in data set [3]; 1 to 3 µg/mL (≈ 2.39 to 7.16 µM) in data set [14].

`Cc1[nH]c(-c2ccc(-c3ccccc3OC(F)(F)F)o2)nc1Cc1ccc(Br)cc1` [compound 30, 4-(4-Bromo-benzyl)-5-methyl-2-[5-(2-trifluoromethoxy-phenyl)-furan-2-yl]-1H-imidazole]: the MIC in data set [16] lay in the range of 11 to 20 µg/mL (≈ 23 to 41.9 µM); in data set [1] (setting [17]), 20 to 50 µg/mL (≈ 41.9 to 105 µM); in data set [11], 1 to 3 µg/mL (≈ 2.1 to 6.29 µM); in data set [3] it was 20 to 50 µg/mL (≈ 41.9 to 105 µM); in data set [14], 11 to 20 µg/mL (≈ 23 to 41.9 µM).

For the molecule `Cc1nc(-c2ccc(-c3ccc(Cl)cc3C(F)(F)F)o2)[nH]c1-c1ccccc1` [compound 32], the “Antibacterial activity Streptococcus pneumoniae” value in data set [5] is given as 3 (MIC100 of 2-5 μg/ml). In addition, the MIC lay within 2 to 5 µg/mL (≈ 4.97 to 12.4 µM) in data set [5], 3 to 10 µg/mL (≈ 7.45 to 24.8 µM) in [6] and 20 to 50 µg/mL (≈ 49.7 to 124 µM) in data set [1] (setting [17]).

As for `Cc1nc(-c2ccc(-c3cccc(OC(F)(F)F)c3)o2)[nH]c1-c1ccccc1` [compound 34], the “Antibacterial activity Streptococcus pneumoniae” value in data set [5] is recorded as 3 (MIC100 of 2-5 μg/ml). Further, the MIC was 2 to 5 µg/mL (≈ 5.2 to 13 µM) in data set [5]; 20 to 50 µg/mL (≈ 52 to 130 µM) in data set [7]; 20 to 50 µg/mL (≈ 52 to 130 µM) in [1] (setting [17]); 3 to 10 µg/mL (≈ 7.81 to 26 µM) in [2]; 11 to 20 µg/mL (≈ 28.6 to 52 µM) in data set [3]; 3 to 10 µg/mL (≈ 7.81 to 26 µM) in [14]. Further, in data set [4], the “Antibacterial activity, MS” value is on record as 2 (MIC100 of 11-20 μg/ml).
